Test results published in patent US11492348B2, “Tri-substituted aryl and heteroaryl derivatives as modulators of PI3-kinase and autophagy pathways” (Neuropore Therapies, Inc., priority 2018, dated 2022).
Counter-ions that a name gives are not always drawn.

Key:
PI3Kα = PI3Kα (Homo sapiens (Human), UniProt P42336); assay: Inhibition of PI3Kα (ADP-Glo kinase activity assay, ATP to ADP conversion); type: biochemical; conditions: 25 μM PIP2:PS, 60 μM ATP, 30 min reaction, luminescence
Summary of the method: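 Recombinant active PI3Kα (1.1 nM) in HEPES pH 7.5 buffer with 6 mM MgCl2 and 8 mM DTT was preincubated with compound for 0 or 3 h. The reaction ran for 30 min with 25 µM PIP2:PS and 60 µM ATP, and ADP formation was read by ADP-Glo luminescence. IC50 came from a 12-point, 1:3 series fitted with a 4-parameter model, bottom fixed to reference inhibitor controls and top floating.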

mTor kinase = mTor kinase (Homo sapiens (Human), UniProt P42345); assay: mTor assay (33P-ATP filter-binding kinase assay); type: biochemical; conditions: 2 hours at room temperature
[1] = test system: (Ser-473) pAKT in B103 (Rat Neuroblastoma) cells; assay: pAKT protocol: loss of (Ser-473) pAKT by AlphaScreen in insulin-stimulated B103 cells; type: cell-based; conditions: (Ser-473) pAKT/total AKT IC50, 2-hour pretreatment, 2.5 μg/mL insulin 20 minutes
Summary of the method: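 Rat neuroblastoma B103 cells, serum-starved 6 h, were pretreated 2 h with inhibitors (6-point 1:3 series, 0.5% DMSO) before insulin stimulation. Lysate Ser-473 pAKT and total AKT measured by AlphaScreen; pAKT/total AKT ratio fitted to 4-parameter curve, bottom constrained to reference control, top anchored to DMSO.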

Chain of PI3Kα (P42336 whole entry): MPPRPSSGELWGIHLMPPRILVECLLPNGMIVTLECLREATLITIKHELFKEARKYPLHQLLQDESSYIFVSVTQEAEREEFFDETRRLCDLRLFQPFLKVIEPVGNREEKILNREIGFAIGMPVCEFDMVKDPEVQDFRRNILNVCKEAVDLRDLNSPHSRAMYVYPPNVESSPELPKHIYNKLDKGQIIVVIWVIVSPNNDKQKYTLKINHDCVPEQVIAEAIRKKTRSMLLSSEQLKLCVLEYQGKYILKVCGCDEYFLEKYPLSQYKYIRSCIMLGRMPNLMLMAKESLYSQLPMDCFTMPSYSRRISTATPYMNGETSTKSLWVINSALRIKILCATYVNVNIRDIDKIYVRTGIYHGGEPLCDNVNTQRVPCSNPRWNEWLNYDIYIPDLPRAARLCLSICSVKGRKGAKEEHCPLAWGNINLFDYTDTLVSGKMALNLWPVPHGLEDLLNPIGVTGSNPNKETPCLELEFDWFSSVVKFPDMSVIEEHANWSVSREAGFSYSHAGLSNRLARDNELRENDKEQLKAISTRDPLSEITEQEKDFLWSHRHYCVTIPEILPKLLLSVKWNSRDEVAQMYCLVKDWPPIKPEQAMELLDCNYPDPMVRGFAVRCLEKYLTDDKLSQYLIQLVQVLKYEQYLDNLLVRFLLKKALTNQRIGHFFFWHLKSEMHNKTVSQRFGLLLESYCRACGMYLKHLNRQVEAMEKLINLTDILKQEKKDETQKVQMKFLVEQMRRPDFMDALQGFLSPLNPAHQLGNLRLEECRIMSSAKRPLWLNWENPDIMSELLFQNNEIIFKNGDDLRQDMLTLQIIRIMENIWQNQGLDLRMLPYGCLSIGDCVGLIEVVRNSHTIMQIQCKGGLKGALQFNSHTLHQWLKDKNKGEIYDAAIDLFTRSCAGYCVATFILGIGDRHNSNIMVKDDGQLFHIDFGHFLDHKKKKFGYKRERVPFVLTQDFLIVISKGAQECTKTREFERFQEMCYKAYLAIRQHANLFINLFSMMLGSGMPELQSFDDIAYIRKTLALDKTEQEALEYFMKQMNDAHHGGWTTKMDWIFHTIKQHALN
Chain of PI3Kα (P27986 whole entry partner): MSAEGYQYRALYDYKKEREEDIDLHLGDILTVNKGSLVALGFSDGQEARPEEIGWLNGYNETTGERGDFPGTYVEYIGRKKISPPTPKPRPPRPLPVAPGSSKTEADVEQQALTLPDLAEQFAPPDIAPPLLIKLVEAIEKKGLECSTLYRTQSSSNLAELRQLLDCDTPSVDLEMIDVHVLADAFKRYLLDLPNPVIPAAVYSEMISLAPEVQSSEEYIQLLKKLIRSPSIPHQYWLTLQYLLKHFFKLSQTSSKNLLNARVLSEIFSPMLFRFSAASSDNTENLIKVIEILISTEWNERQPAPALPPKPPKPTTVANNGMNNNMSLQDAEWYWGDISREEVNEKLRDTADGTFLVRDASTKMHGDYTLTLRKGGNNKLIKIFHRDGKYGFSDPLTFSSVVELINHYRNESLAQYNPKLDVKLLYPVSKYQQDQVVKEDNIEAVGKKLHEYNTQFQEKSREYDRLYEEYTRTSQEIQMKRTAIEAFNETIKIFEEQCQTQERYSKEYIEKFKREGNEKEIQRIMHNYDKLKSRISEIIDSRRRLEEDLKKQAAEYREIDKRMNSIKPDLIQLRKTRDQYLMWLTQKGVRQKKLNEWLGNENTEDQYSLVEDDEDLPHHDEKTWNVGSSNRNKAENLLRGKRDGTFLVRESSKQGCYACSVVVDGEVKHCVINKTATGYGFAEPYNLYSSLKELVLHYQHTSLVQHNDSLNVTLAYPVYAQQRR

SMILES	PI3Ka IC50 (PI3Kα) [µM]	IC50 (mTor kinase) [µM]	IC50 [1] [µM]
Nc1ncc(-c2cc(N3CCOCC3)cc(S(=O)(=O)Cc3c[nH]c4ccccc34)c2)cn1 [48 (as a TFA salt), 5-(3-(((1H-indol-3-yl)methyl)sulfonyl)-5-morpholinophenyl)pyrimidin-2-amine]	0.47	6.39	> 50
Nc1cc(C(F)(F)F)c(-c2cc(N3CCOCC3)cc(S(=O)(=O)Cc3ccccc3)c2)cn1 [Compound 32, 5-(3-(benzylsulfonyl)-5-morpholinophenyl)-4-(trifluoromethyl)pyridin-2-amine]	0.45	> 33	6.3
O=S(=O)(c1ccccc1)c1cc(-c2cnc(NCCO)nc2)cc(N2CCOCC2)c1 [Compound 19, 2-((5-(3-morpholino-5-(phenylsulfonyl)phenyl)pyrimidin-2-yl)amino)ethan-1-ol]	2.9	16	37
Cc1ccc(S(=O)(=O)c2cc(-c3cnc(N)nc3)cc(N3CCOCC3)c2)cc1 [Compound 21, 5-(3-morpholino-5-tosylphenyl)pyrimidin-2-amine]	2.1	9.39	37
CCNC(=O)N1CC(S(=O)(=O)c2cc(-c3cnc(N)nc3)cc(N3CCOCC3)c2)C1 [Compound 93, 3-((3-(2-aminopyrimidin-5-yl)-5-morpholinophenyl)sulfonyl)-N-ethylazetidine-1-carboxamide]	0.088	0.87	5.44
Nc1ncc(-c2cc(N3CCOCC3)cc(S(=O)(=O)CC3CCOCC3)c2)cn1 [Compound 39, 5-(3-morpholino-5-(((tetrahydro-2H-pyran-4-yl)methyl)sulfonyl)phenyl)pyrimidin-2-amine]	0.79	4.8	9.9
